From patent US9453028B2, “Protein kinase C inhibitors and uses thereof” (Rigel Pharmaceuticals, Inc., priority 2009, dated 2016)

Legend:
Human primary T cell = assay: IL-2 ELISA, human primary T cell, anti-CD3+CD28+ whole cell assay; format: cell-based; settings: T-cell; IL-2 by ELISA, human primary T cells stimulated with anti-CD3+CD28
Protocol: 2. IL-2 ELISA, Human Primary T Cell, Anti-CD3+CD28+ Assays
Human primary T cells were prepared as follows. Whole blood was obtained from a healthy volunteer, mixed 1:1 with PBS, layered on to Ficoll Hypaque (Amersham Pharmacia Biotech, Piscataway, N.J., Catalog #17-1440-03) in 2:1 blood/PBS:ficoll ratio and centrifuged for 30 minutes at 4° C. at 1750 rpm. The cells at the serum:ficoll interface were recovered and washed twice with 5 volumes of PBS. These freshly isolated human peripheral blood mononuclear cells were cultured in Yssel's medium containing 40 U/mL IL2 in a flask pre-coated with 1 μg/mL αCD3 and 5 μg/mL αCD28 (Anti-Human CD3, BD Pharmingen Catalog #555336, Anti-Human CD28, Beckman Coulter Catalog #1M1376). The cells were stimulated for 3-4 days, then transferred to a fresh flask and maintained in RPMI (RPMI-1640 with L-Glutamine; Mediatech, Inc., Herndon Va., cat. #10-040-CM) with 10% FBS and 40 U/mL IL-2. The primary T-cells were then washed twice with PBS to remove the IL-2.
Human primary T cells (100,000 cells per well) were pre-incubated with or without test compound in Yssel's medium for 1 hr at 37° C. Cells were then stimulated by transferring them to round-bottom 96-well plates pre-coated with 1 μg/ml αCD3 and 5 μg/ml αCD28. For counter assay, cells were instead stimulated by adding 8× stock solutions of PMA and ionomycin in Yssels (for final concentrations of 0.5 ng/ml PMA and 0.1 μM ionomycin, both from Calbiochem). Cells were incubated at 37° C. for 24 hours before 100 μL supernatants were harvested for quantification of IL-2 by ELISA using Human IL-2 Duoset ELISA Kit from R and D Systems, Cat. # DY202E.
(§1) Several subject compounds were tested according to procedures in the “Characterization of Functional Properties” section. PKC kinase activity was measured using the procedure Section A.1 (Protein Kinase C assay) with the appropriate isoform. The whole cell assay was run according to the procedure in Section A.2 (IL-2 ELISA, Human primary T cell, anti-CD3+CD28+ Assays). […] Blank entries indicate that the IC50 was not determined.

PKC-alpha = molecular target: T1, PKC-alpha (Homo sapiens, UniProt P17252); assay: Protein Kinase C assay (fluorescence polarization), PKC-alpha; format: biochemical
T1 construct: purchased Oxford Biomedical Research
Protocol: (§2) The inhibition of PKC activity was measured by monitoring the production of phosphorylated peptide by fluorescence polarization at different concentrations of the inhibitor. Reactions were carried out in 96-well plate format with a total volume of 20 μL containing 20 mM HEPES, pH 7.4, 5 mM MgCl2, 0.2 mM CaCl2, 1 mM DTT, 0.02% Brij-35, 0.1 mg/mL phosphatidylserine, 0.02 mg/mL dioleoyl-sn-glycerol and 5 μM each of ATP and the peptide substrate. Compounds were first diluted serially in DMSO and then transferred to a solution containing the above concentrations of HEPES, MgCl2, CaCl2, DTT, and Brij-35 to yield 5× compound solutions in 2% DMSO, which was then added to the reaction solution. Reactions were initiated by the addition of PKC at a typical concentration as described in the table below, and then allowed to incubate at room temperature for 20 minutes. At the end of this time, a combination of quench (EDTA) and detection (peptide tracer and antibody) reagents was added using the protocol of Invitrogen P2748 (Carlsbad, Calif.), a Protein Kinase C Fluorescence polarization Assay Kit. After a 30 minute period of incubation, the amount of phosphorylated peptide generated was measured by fluorescence polarization (Ex=485 nm, Em=535 nm) using a Tecan Polarian instrument (Switzerland).
Human recombinant PKC α is obtained from Oxford Biomedical Research and is used under the assay conditions as described under Section A.1 above.
as §1

PKC-beta = molecular target: T2, PKC-beta (Homo sapiens, UniProt P05771); assay: Protein Kinase C assay (fluorescence polarization), PKC-beta; format: biochemical
T2 construct: purchased Oxford Biomedical Research
T2 sequence (P05771 whole entry): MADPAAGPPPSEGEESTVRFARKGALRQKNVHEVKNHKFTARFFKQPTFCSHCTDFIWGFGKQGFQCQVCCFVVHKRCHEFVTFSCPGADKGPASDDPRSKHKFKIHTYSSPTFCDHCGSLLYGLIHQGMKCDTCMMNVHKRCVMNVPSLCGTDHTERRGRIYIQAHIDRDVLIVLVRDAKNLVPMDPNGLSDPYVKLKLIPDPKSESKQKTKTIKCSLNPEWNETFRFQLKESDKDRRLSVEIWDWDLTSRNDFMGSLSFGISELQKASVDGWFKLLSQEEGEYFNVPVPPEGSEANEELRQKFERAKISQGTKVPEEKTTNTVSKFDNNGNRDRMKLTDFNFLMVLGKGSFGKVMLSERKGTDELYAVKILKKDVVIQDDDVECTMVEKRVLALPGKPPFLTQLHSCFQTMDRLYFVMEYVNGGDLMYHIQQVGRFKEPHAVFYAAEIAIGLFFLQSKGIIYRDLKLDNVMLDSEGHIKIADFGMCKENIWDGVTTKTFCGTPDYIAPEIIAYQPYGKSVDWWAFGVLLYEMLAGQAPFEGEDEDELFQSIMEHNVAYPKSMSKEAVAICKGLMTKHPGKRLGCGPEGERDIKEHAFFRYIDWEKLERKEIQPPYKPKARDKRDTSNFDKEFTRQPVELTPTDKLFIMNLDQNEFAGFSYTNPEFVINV
Protocol: as §2
Human recombinant PKC β1 is obtained from Oxford Biomedical Research and is used under the assay conditions as described under Section A.1 above.
as §1

PKC-delta = molecular target: T3, PKC-delta (Homo sapiens, UniProt Q05655); assay: Protein Kinase C assay (fluorescence polarization), PKC-delta; format: biochemical
T3 construct: purchased Oxford Biomedical Research
T3 sequence (Q05655 whole entry): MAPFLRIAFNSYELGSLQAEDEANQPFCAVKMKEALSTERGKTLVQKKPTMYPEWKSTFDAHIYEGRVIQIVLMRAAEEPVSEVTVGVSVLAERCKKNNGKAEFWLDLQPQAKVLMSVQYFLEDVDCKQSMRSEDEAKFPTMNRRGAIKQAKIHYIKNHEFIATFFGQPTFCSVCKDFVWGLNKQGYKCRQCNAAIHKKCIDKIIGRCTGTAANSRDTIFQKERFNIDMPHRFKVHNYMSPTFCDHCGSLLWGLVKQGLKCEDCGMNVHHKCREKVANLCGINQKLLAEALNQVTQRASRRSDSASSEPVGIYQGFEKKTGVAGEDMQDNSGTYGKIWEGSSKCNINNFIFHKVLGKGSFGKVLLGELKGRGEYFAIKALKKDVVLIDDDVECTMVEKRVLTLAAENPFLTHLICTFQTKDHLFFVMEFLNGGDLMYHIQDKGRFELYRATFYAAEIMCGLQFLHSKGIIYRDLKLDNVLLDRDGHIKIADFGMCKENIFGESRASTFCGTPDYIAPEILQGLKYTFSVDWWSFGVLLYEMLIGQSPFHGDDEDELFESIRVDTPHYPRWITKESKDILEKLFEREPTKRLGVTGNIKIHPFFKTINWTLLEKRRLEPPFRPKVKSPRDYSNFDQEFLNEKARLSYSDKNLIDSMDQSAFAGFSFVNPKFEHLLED
Protocol: as §2
Human recombinant PKC δ is obtained from Oxford Biomedical Research and is used under the assay conditions as described under Section A.1 above.
as §1

PKC-epsilon = molecular target: T4, PKC-epsilon (Homo sapiens, UniProt Q02156); assay: Protein Kinase C assay (fluorescence polarization), PKC-epsilon; format: biochemical
T4 construct: purchased Upstate Biotechnologies, Temecula, CA 14-518
T4 sequence (Q02156 1-737): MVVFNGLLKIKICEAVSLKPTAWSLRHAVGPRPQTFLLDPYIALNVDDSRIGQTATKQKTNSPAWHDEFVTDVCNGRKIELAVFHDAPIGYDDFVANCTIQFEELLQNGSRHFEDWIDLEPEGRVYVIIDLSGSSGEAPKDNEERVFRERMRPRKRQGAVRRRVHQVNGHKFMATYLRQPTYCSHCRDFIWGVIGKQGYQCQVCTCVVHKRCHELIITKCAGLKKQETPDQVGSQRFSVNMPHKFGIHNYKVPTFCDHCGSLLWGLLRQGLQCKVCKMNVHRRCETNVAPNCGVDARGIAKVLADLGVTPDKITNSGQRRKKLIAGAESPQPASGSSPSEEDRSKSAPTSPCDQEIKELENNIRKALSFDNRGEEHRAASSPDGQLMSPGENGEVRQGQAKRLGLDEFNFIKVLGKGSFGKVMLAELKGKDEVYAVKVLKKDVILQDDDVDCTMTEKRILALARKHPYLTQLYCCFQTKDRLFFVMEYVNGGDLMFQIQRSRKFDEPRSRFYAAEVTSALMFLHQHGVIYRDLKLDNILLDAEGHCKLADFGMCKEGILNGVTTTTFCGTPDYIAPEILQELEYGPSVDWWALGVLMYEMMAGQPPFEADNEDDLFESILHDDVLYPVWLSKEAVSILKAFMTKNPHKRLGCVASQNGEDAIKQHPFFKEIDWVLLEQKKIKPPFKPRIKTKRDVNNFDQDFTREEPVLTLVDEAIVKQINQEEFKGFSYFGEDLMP
Protocol: as §2
Human recombinant PKC […] is obtained from Oxford Biomedical Research and is used under the assay conditions as described under Section A.1 above.
as §1

PKC-theta = molecular target: T5, PKC-theta (Homo sapiens, UniProt Q04759); assay: Protein Kinase C assay (fluorescence polarization), PKC-theta; format: biochemical
T5 construct: purchased Upstate Biotechnologies, Temecula, CA 14-444
T5 sequence (Q04759 whole entry): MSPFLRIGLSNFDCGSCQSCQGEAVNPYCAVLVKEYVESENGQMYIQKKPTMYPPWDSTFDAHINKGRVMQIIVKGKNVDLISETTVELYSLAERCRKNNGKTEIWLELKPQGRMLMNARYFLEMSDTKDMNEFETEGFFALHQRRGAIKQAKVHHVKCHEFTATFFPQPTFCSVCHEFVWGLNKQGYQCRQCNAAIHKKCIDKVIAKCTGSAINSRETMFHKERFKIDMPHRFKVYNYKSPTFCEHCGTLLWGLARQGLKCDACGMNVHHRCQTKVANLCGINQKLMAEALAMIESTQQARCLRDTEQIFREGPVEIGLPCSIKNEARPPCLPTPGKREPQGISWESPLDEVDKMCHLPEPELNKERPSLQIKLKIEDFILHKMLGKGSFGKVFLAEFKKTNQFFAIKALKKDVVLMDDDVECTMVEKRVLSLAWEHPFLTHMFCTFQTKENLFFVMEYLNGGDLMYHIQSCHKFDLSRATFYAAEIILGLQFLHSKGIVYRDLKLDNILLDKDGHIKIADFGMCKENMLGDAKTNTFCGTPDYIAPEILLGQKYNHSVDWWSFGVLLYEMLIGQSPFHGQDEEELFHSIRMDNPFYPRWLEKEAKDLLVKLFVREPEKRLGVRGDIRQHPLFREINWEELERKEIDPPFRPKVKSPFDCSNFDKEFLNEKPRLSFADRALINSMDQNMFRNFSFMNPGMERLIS
Protocol: as §2
Human recombinant PKC θ is used under the assay conditions as described above.
as §1

Structure (SMILES)	IC50 (Human primary T cell) [nM]	IC50 (PKC-alpha) [nM]	IC50 (PKC-beta) [nM]	IC50 (PKC-delta) [nM]	IC50 (PKC-epsilon) [nM]	IC50 (PKC-theta) [nM]
CC1(C)CC(Nc2nc(Nc3ccc4c(c3)-n3nnnc3C(F)(F)O4)ncc2F)CC(C)(C)N1 [Compound 1-5, N2-(4,4-difluoro-4H-benzo[b]tetrazolo[1,5-d][1,4]oxazin-8-yl)-5-fluoro-N4-(2,2,6,6-tetramethylpiperidin-4-yl)pyrimidine-2,4-diamine]	500 to 1000	< 250	< 250	< 250	< 250	< 250
CN1C(C)(C)CC(Nc2nc(Nc3ccc4c(c3)-n3nnnc3C(C)(C)O4)ncc2F)CC1(C)C [Compound 1-8, N2-(4,4-dimethyl-4H-benzo[b]tetrazolo[1,5-d][1,4]oxazin-8-yl)-5-fluoro-N4-(1,2,2,6,6-pentamethylpiperidin-4-yl)pyrimidine-2,4-diamine]	< 250	< 250	< 250	< 250	< 250	< 250
CC1Oc2ccc(Nc3ncc(F)c(NC4CC(C)(C)N(C)C(C)(C)C4)n3)cc2-n2nnnc21 (stereo not drawn) [Compound 1-18]	< 250	< 250	< 250	< 250	< 250	< 250
CN1C(C)(C)CC(Nc2nc(Nc3ccc4c(c3)-n3nnnc3C(F)(F)O4)ncc2F)CC1(C)C [Compound 1-6, N2-(4,4-difluoro-4H-benzo[b]tetrazolo[1,5-d][1,4]oxazin-8-yl)-5-fluoro-N4-(1,2,2,6,6-pentamethylpiperidin-4-yl)pyrimidine-2,4-diamine]	250 to 500	< 250	< 250	< 250	< 250	< 250
